In paper PMC11678797, “A Repurposed Drug Selection Pipeline to Identify CNS-Penetrant Drug Candidates for Glioblastoma” (Pharmaceuticals, 2024):
Read-outs that look alike come from different tables or passages of the source.

Tests used:
[1] = Pharmacokinetics of omacetaxine in orthotopic glioblastoma PDX and naïve NOD/SCID mice (LC-MS/MS of plasma, brain, liver); format: in vivo, mouse
Protocol: An amount of 10 μL medium samples was vortex-mixed with 30 μL of acetonitrile: formic acid (100:1 v/v) containing 100 nM RO-3306 Internal Standard). After centrifugation, the supernatant was 5-fold diluted in water. OMA concentrations were measured using an LC-MS/MS system that consisted of an UltiMate 3000 LC System (Dionex, Sunnyvale, CA, USA) and an API 4000 mass spectrometer (Sciex, Framingham, MA, USA). Samples were analyzed using a ZORBAX Extend-C18 column (Agilent, Santa Clara, CA, USA), preceded by a Security-guard C18 pre-column (Phenomenex, Utrecht, The Netherlands). Elution was performed using a mixture of mobile phase A (0.1% formic acid in water (v/v)) and mobile phase B (methanol) in a 5 min gradient from 20% to 95% B, followed by 95% B that was maintained for 3 min and then re-equilibrated at 20% B. Multiple reaction monitoring parameters were 546.6/298.1 (OMA) and 352.1/186.0 (RO-3306).
Non-obese diabetic severe combined immunodeficient (NOD/SCID) female mice 6–8 weeks of age were used for this study. All experiments were ethically approved by the local Animal Experiments Committee. Patient-derived glioblastoma cell lines were cultured under serum-free conditions prior to injection into the mice. Mice were stereotactically injected with GS607, GS832 (both 2.5 × 10^5 in 5 μL) or GBM8 (1 × 10^5 in 3 μL) in the right striatum 1.0 mm anteroposterior (AP), 2.0 mm medio lateral (ML) and −2.5 mm dorsal ventral (DV) of bregma suture under aseptic conditions. Mice were monitored daily for signs of persistent abnormal behavior and/or breathing, weight loss >20% and development of neurological symptoms such as convulsions, seizures and/or hemiparesis. Mice were euthanized and the mouse brains harvested for histological and LC/MS/MS analysis.
A single dose of 1.5 mg/kg of OMA was administered s.c. to glioblastoma-bearing NOD/SCID and naïve non-tumor-bearing mice. Mice received OMA prior to the timepoint drug delivery experiment, ensuring the presence of significant tumor masses. For GS607, this was at 78 days; for GS832 at 90 days; and for GBM8 at 46 days post-tumor implantation, based on previous survival experiments. Blood samples were collected at 15 min, 30 min, 60 min, 120 min and 240 min via the tail vein and/or submandibular vein and placed in EDTA tubes. Mice were euthanized at 60 min, 120 min or 240 min with cervical dislocation. Brains and livers were surgically collected and snap-frozen in liquid nitrogen (N2). To preserve the drug stability in plasma mouse blood, samples were centrifuged immediately upon collection. Plasma was separated by centrifugation at 3500 rpm at 4 °C for 15 min. Both plasma and tissue samples were stored at −80 °C until LC-MS/MS analysis.

[2] = source not stated; cited from earlier work

SMILES: COC(=O)C[C@](O)(CCCC(C)(C)O)C(=O)O[C@@H]1C(OC)=C[C@]23CCCN2CCc2cc4c(cc2[C@H]13)OCO4 [OMA, Omacetaxine mepesuccinate]
- concentration at 240 min ([1]; female, NOD/SCID, mouse, brain, right hemisphere (tumor bearing), sc, 1.5 mg/kg, GS832-PDX, 240 min, single s.c. dose 1.5 mg/kg, n = 5, read-out: [Brain] ± SD, right hemisphere (tumor bearing)): 11.6 ± 6.4 ng/g
- Kp at 60 min ([1]; female, NOD/SCID, mouse, brain, sc, 1.5 mg/kg, GBM8 PDX, 60 min, single s.c. dose 1.5 mg/kg, read-out: [Brain]/[Plasma] Ratio ± SD): 0.11
- Kp at 60 min ([1]; female, NOD/SCID, mouse, brain, sc, 1.5 mg/kg, GS607-PDX, 60 min, single s.c. dose 1.5 mg/kg, n = 2 blood samples, read-out: [Brain]/[Plasma] Ratio ± SD): 0.23
- Kp at 60 min ([1]; female, NOD/SCID, mouse, brain, sc, 1.5 mg/kg, GS832-PDX, 60 min, single s.c. dose 1.5 mg/kg, read-out: [Brain]/[Plasma] Ratio ± SD): 0.1
- Kp at 120 min ([1]; female, NOD/SCID, mouse, brain, sc, 1.5 mg/kg, GS832-PDX, 120 min, single s.c. dose 1.5 mg/kg, read-out: [Brain]/[Plasma] Ratio ± SD): 0.37 ± 0.24
- Kp at 240 min ([1]; female, NOD/SCID, mouse, brain, sc, 1.5 mg/kg, GS832-PDX, 240 min, single s.c. dose 1.5 mg/kg, read-out: [Brain]/[Plasma] Ratio ± SD): 0.5
- Kp at 60 min ([1]; female, NOD/SCID, mouse, brain, sc, 1.5 mg/kg, naïve non-tumor-bearing mice, 60 min, single s.c. dose 1.5 mg/kg, read-out: [Brain]/[Plasma] Ratio ± SD): 0.05 ± 0.01
- Kp at 60 min ([1]; female, NOD/SCID, mouse, brain, subcutaneous, 1.5 mg/kg, stated as at 60 min, range across PDX models, read-out: B/P ratio across the PDX models): 0.12 to 0.5
- concentration at 60 min ([1]; female, NOD/SCID, mouse, liver, sc, 1.5 mg/kg, GBM8 PDX, 60 min, single s.c. dose 1.5 mg/kg, n = 6, read-out: [Liver] ± SD): 998 ± 254 ng/g
- concentration at 60 min ([1]; female, NOD/SCID, mouse, liver, sc, 1.5 mg/kg, GS607-PDX, 60 min, single s.c. dose 1.5 mg/kg, n = 4, read-out: [Liver] ± SD): 1650 ± 163 ng/g
- concentration at 60 min ([1]; female, NOD/SCID, mouse, liver, sc, 1.5 mg/kg, GS832-PDX, 60 min, single s.c. dose 1.5 mg/kg, n = 5, read-out: [Liver] ± SD): 680 ± 156 ng/g
- concentration at 120 min ([1]; female, NOD/SCID, mouse, liver, sc, 1.5 mg/kg, GS832-PDX, 120 min, single s.c. dose 1.5 mg/kg, n = 5, read-out: [Liver] ± SD): 338 ± 94 ng/g
- concentration at 240 min ([1]; female, NOD/SCID, mouse, liver, sc, 1.5 mg/kg, GS832-PDX, 240 min, single s.c. dose 1.5 mg/kg, n = 5, read-out: [Liver] ± SD): 190 ± 48 ng/g
- concentration at 60 min ([1]; female, NOD/SCID, mouse, liver, sc, 1.5 mg/kg, naïve non-tumor-bearing mice, 60 min, single s.c. dose 1.5 mg/kg, n = 2, read-out: [Liver] ± SD): 715.9 ± 4.6 ng/g
- concentration at 60 min ([1]; female, NOD/SCID, mouse, plasma, sc, 1.5 mg/kg, GBM8 PDX, 60 min, single s.c. dose 1.5 mg/kg, n = 6, read-out: [Plasma] ± SD): 391 ± 58 ng/mL
- concentration at 60 min ([1]; female, NOD/SCID, mouse, plasma, sc, 1.5 mg/kg, GS607-PDX, 60 min, single s.c. dose 1.5 mg/kg, n = 2 blood samples, read-out: [Plasma] ± SD): 88 ± 9 ng/mL
- concentration at 15 min ([1]; female, NOD/SCID, mouse, plasma, sc, 1.5 mg/kg, GS832-PDX NOD/SCID mice, single s.c. dose 1.5 mg/kg, 15 min (Table 1), read-out: [Plasma] ± SD): 396 ± 59 ng/mL
- concentration at 30 min ([1]; female, NOD/SCID, mouse, plasma, sc, 1.5 mg/kg, GS832-PDX NOD/SCID mice, single s.c. dose 1.5 mg/kg, 30 min (Table 1), read-out: [Plasma] ± SD): 282 ± 65.4 ng/mL
- concentration at 60 min ([1]; female, NOD/SCID, mouse, plasma, sc, 1.5 mg/kg, GS832-PDX NOD/SCID mice, single s.c. dose 1.5 mg/kg, 60 min (Table 1, n = 9), read-out: [Plasma] ± SD): 166 ± 29 ng/mL
- concentration at 120 min ([1]; female, NOD/SCID, mouse, plasma, sc, 1.5 mg/kg, GS832-PDX NOD/SCID mice, single s.c. dose 1.5 mg/kg, 120 min (Table 1, n = 10), read-out: [Plasma] ± SD): 57.8 ± 10.8 ng/mL
- concentration at 240 min ([1]; female, NOD/SCID, mouse, plasma, sc, 1.5 mg/kg, GS832-PDX NOD/SCID mice, single s.c. dose 1.5 mg/kg, 240 min (Table 1), read-out: [Plasma] ± SD): 24 ± 3 ng/mL
- concentration at 60 min ([1]; female, NOD/SCID, mouse, plasma, sc, 1.5 mg/kg, GS832-PDX, 60 min, single s.c. dose 1.5 mg/kg, n = 5 (Table 2), read-out: [Plasma] ± SD): 186 ± 21.1 ng/mL
- concentration at 120 min ([1]; female, NOD/SCID, mouse, plasma, sc, 1.5 mg/kg, GS832-PDX, 120 min, single s.c. dose 1.5 mg/kg, n = 5 (Table 2), read-out: [Plasma] ± SD): 55.6 ± 10.7 ng/mL
- concentration at 240 min ([1]; female, NOD/SCID, mouse, plasma, sc, 1.5 mg/kg, GS832-PDX, 240 min, single s.c. dose 1.5 mg/kg, n = 5 (Table 2), read-out: [Plasma] ± SD): 23.5 ± 0.7 ng/mL
- concentration at 60 min ([1]; female, NOD/SCID, mouse, plasma, sc, 1.5 mg/kg, naïve non-tumor-bearing mice, 60 min, single s.c. dose 1.5 mg/kg, n = 2, read-out: [Plasma] ± SD): 224 ± 12 ng/mL
- Tmax ([1]; female, NOD/SCID, mouse, plasma, sc, GS832 tumor-bearing mice, single s.c. dose 1.5 mg/kg, read-out: time of peak concentration in plasma (converted)): 15 min
- half-life ([1]; female, NOD/SCID, mouse, sc, plasma, GS832 tumor-bearing mice, single s.c. dose 1.5 mg/kg): 50 min
- [Brain] ± SD, right hemisphere (non-tumor-bearing) ([1]; naïve non-tumor-bearing mice, 60 min, single s.c. dose 1.5 mg/kg, n = 2, 1.5 mg/kg): 16.4 ± 2.9 ng/g
- logP value [2]: 1.88
